The record followed here is patent US8937063B2 (Trustees of Tufts College, priority 2010, dated 2015).

For data set [1], the system named is healthy adult volunteers. The experiment in a line: Human clinical trial, single escalating oral doses: triglycerides. Format: in vivo. As to conditions: preliminary, FIG. 22. As for the experimental part: A randomized, double-blind, placebo-controlled study is performed with sequential escalating doses by cohort with observations for 30 hours post dosing and return visit on 8th day. Study subjects are healthy male and female adult volunteers, age 18-60 years, with LDL-C>130 mg/dL and weight <85 kg. Subjects are randomly assigned to receive study drug or placebo.
Five periods of single dose escalation, with 8 subjects per cohort (6 drug: 2 placebo) involve a total 40 subjects. Appropriately blinded matching placebos are provided. Cohort 1 receives 500 mg of ARI-001 formulated as a single oral tablet, plus eleven placebo tablets; Cohort 2, 1000 mg taken as two 500 mg tablets of ARI-001, plus ten placebo tablets; Cohort 3, 2000 mg taken as four 500 mg tablets of ARI-001, plus eight placebo tablets; Cohort 4, 4000 mg taken as eight 500 mg tablets of ARI-001, plus four placebo tablets; Corhort 5, 6000 mg taken as twelve 500 mg tablets of ARI-001. Placebo-only subjects take twelve placebo tablets. Each tablet is a compressed, film-coated tablet suitable for oral administration. […]

Data set [2] can be described thus: Storage stability of ARI-001 at 50° C., LC-MS. It is filed as physicochemical. Conditions: unregulated humidity. As for the experimental part:
ARI-001 was synthesized as described above. Purity was determined independently before use in experiments by examination via liquid chromatography-mass spectroscopy (LC-MS). A sample of material was dissolved in water/acetonitrile and injected onto a Discovery C-18 reverse phase column. The mobile phase began as 2%:98% acetonitrile:water, which was held for three minutes, after which a linear gradient was started that ran over 6 minutes, increasing the percent of acetonitrile until a final ratio of 98%:2% acetonitrile:water was reached. This final ratio was held for 3 minutes. The major peak was identified as ARI-001.
Stability was determined by storing ARI-001 under 50° C. with no specified humidity requirement. At various time points over the course of 3 months (90 days), a small sample (<5 mg) of ARI-001 was collected for analysis using LC-MS under the same conditions as used for purity determination (vide supra).

The nature of data set [3]: Single oral dose pharmacokinetic comparison niacin, ARI-001, 2230C in wild type mice. It is filed as in vivo, C57BL/6 mice. As to conditions: single bolus oral gavage, mouse plasma. From the text:
Compound 2230C has the structure

Data set [4] in a line: Pharmacokinetics of multiple administrations to fasted monkeys. It is filed as in vivo, Macaque monkeys. Conditions: 288 mg/kg oral gavage once per day, seven days. As for the experimental part: ARI-001 was administered to monkeys via oral gavage once per day for a total of seven days. Blood samples were collected after the first and after the last administrations to measure plasma concentrations of ARI-001.

The test system of data set [5] is dogs. Description: Clinical symptoms of flushing over 28 days. It is filed as in vivo. From the text: (§1) Additionally, clinical symptoms of “flushing” were not observed over 28 days in rats or dogs.
Data set [6] concerns rats. Description: Clinical symptoms of flushing over 28 days. Format: in vivo.
Excerpt: as §1

Data set [7] deals with high fat-fed hamsters. The experiment in a line: Plasma glucose in chronically dosed hamsters. It is filed as in vivo, hamster. As to conditions: ARI-001 1120 and 2240 mg/kg oral 18 days, vs vehicle. As for the experimental part: These animals were dosed for 18 consecutive days, while being on a HF/HS diet for a total of nearly 5 weeks. We also examined the glucose levels in the plasma of these animals. For pharmacokinetic studies, we utilized wild type mice for both single and repeated administration study. Finally, pharmacokinetic studies were corroborated by data from single and repeated administration to monkeys.

The test system of data set [8] is CETP mRNA. The experiment in a line: qPCR of liver and adipose mRNA in HF/HS hamsters. It is filed as in vivo, hamster. Conditions: ARI-001 2240 mg/kg oral 18 days; relative to mean of vehicle. From the text:
Hamster livers and adipose were preared in manners similar to that described for ARI-001 concentration determination. Briefly, to prepare for analysis, a sample of liver was excised from the frozen mass, weighed, and homogenized with a tissue grinder followed by sonication in buffer. The solid materials were then removed by centrifugation. The resulting lysate was used in qPCR analysis to quantify the specific mRNA measured (vide infra) using primers designed for the specific sequences of interest. All mRNA quantities were normalized to vehicle-treated animal, and mRNA levels were expressed as a fold increase or decrease relative to vehicle-treated. […] During grinding, liquid nitrogen was added to ensure the sample of adipose remained solid. The ground sample was transferred to a tared tube to weigh total sample. This ground sample was treated with buffer and prepared for qPCR to quantify specific mRNA quantities.
In general terms: Quantitative PCR measures a nucleic acid by following its amplification.

The nature of data set [9]: Multiple administration (30 days) pharmacokinetic study in wild type mice. As to conditions: 996, 1493, 2240, 3360 mg/kg oral daily 30 days. It is filed as in vivo, C57BL/6 mice. As to the method: Wild type C57BL/6 mice were dosed with ARI-001 in solution via oral gavage daily for 30 consecutive days. Over the course of five 24-hour periods, blood was collected, and the resultant plasma was analyzed for concentrations of ARI-001. Four doses were used: 996 mg/kg, 1493 mg/kg, 2240 mg/kg, and 3360 mg/kg. […] However, these values were time-independent, as there was no trend observed between these parameters and days of administration. See FIGS. 15A-15D and FIGS. 16A-16B.

Turning to `O=C(O)c1ccc(CCN2CCOCC2)nc1` [ARI-001], the “change in triglycerides 4 hours after dosing” value in data set [1] was “dose response for triglyceride lowering”. For the same compound, the “purity remaining on storage” value in data set [2] (65 days) came to 98.9%. Besides, the “purity remaining on storage” value in data set [2] (90 days) amounted to 95.9%. In addition, in data set [3] (C57BL/6), the AUC (as a rule, the area under the concentration-time curve, a measure of exposure) is 1100 µM·h; the Cmax (usually the peak of the concentration-time curve) came out at 309 µM; the Tmax (usually the time at which the peak concentration occurs) came out at 22.8 min. Besides, the half-life in data set [3] (C57BL/6, read-out: half-life (t1/2) (converted)) was 85.8 min. For the same compound, in data set [3], the “AUC (% Niacin)” value amounted to 9.4 % Niacin, the “Cmax (% Niacin)” value worked out at 7.5 % Niacin and the Cmax/AUC0-24 came to 0.28 h⁻¹. In data set [4], the “Cmax day 1 versus day 7” value is “higher on day 7 than on day 1”, the “concentrations 24 hours after first or last dose” value is given as “essentially identical” and the “plasma concentrations day 1 versus day 7” value was “very little difference”. Also, the “clinical symptoms of flushing” value in data set [5] is recorded as “not observed”. In data set [6], the “clinical symptoms of flushing” value is recorded as “not observed”. In addition, the plasma glucose result in [7] is “neither dose of ARI-001 produced any significant change in glucose levels”. Moreover, in data set [8], the “Adipose CETP mRNA per mg tissue” value turned out to be 1.72 ± 0.70 fold-change and the “Liver CETP mRNA per mg tissue” value worked out at 2.05 ± 0.38 fold-change. Also, in data set [9], the “Cmax levels and AUC as a function of days of administration” value is reported as “time-independent”; the “Cmax levels and total 24-hour exposure (AUC) as a function of dose” value is “dose-dependent”.
